{"source": "paper PMC9965906", "about": "“Discovery and Development Strategies for SARS-CoV-2 NSP3 Macrodomain Inhibitors” (Pathogens, 2023)", "key": {"NSP3 Mac1 [1]": {"molecular_target": "NSP3 Mac1", "conditions": "recognition by NSP3 Mac1; cited from earlier work"}, "NSP3 Mac1 [2]": {"test_system": "NSP3 Mac1", "set-up": "method as in PMID 35598780", "conditions": "similar set-up using the peptide, AlphaScreen; cited from earlier work"}, "MacroD1": {"test_system": "MacroD1", "conditions": "MacroD1, AlphaScreen-based assay format; cited from earlier work"}, "SARS-CoV-2 NSP3 Mac1": {"molecular_target": "SARS-CoV-2 NSP3 Mac1 (Severe acute respiratory syndrome coronavirus 2, UniProt P0DTD1)", "test": "biochemical", "assay_type": "binding", "conditions": "for inhibitory activity in FDA-approved library screen: primary screen at the set screening concentration; for NSP3 Mac1 inhibition at 50 µM (%): FDA-approved compound library primary screen, single shot"}}, "data": [{"compound": "Nc1ncnc2c1ncn2[C@@H]1O[C@H](COP(=O)(O)OP(=O)(O)OC[C@H]2OC(O)[C@H](O)[C@@H]2O)[C@@H](O)[C@H]1O", "note": "(stereo partly drawn) [ADP-ribose]", "values": [{"measurement": "Kd", "setting": "NSP3 Mac1 [1]", "value": 13, "unit": "µM"}, {"measurement": "IC50", "setting": "NSP3 Mac1 [2]", "value": 1.5, "unit": "µM"}]}, {"compound": "C[CH2][Hg][S]c1ccccc1C(=O)[O-].[Na+]", "note": "[Thimerosal, reference compound]", "values": [{"measurement": "IC50", "setting": "MacroD1", "value": 5.2, "unit": "µM"}]}, {"compound": "COCCCOc1ccnc(C[S+]([O-])c2nc3ccccc3[nH]2)c1C", "note": "(stereo not drawn) [rabeprazole, reference compound]", "values": [{"measurement": "inhibitory activity in FDA-approved library screen", "setting": "SARS-CoV-2 NSP3 Mac1", "value": "could yet not measure any inhibitory activity"}]}, {"compound": "CCCc1nc2c(C)cc(-c3nc4ccccc4n3C)cc2n1Cc1ccc(-c2ccccc2C(=O)O)cc1", "note": "[telmisartan, reference compound]", "values": [{"measurement": "inhibitory activity in FDA-approved library screen", "setting": "SARS-CoV-2 NSP3 Mac1", "value": "could yet not measure any inhibitory activity"}]}, {"compound": "Candicidin [reference compound]", "values": [{"measurement": "NSP3 Mac1 inhibition at 50 µM (%)", "setting": "SARS-CoV-2 NSP3 Mac1", "value": 50.1, "unit": "%"}, {"measurement": "NSP3 Mac1 inhibition at 50 µM (%)", "setting": "SARS-CoV-2 NSP3 Mac1; listed as candicidin", "value": 50, "unit": "%"}]}, {"compound": "Chlorophyllide Cu complex Na salt [reference compound]", "values": [{"measurement": "NSP3 Mac1 inhibition at 50 µM (%)", "setting": "SARS-CoV-2 NSP3 Mac1", "value": 106.7, "unit": "%"}, {"measurement": "NSP3 Mac1 inhibition at 50 µM (%)", "setting": "SARS-CoV-2 NSP3 Mac1; listed as chlorophyllide–copper complex", "value": 106, "unit": "%"}]}]}
